Results as given in patent US9125913B2, “Bcl-2-selective apoptosis-inducing agents for the treatment of cancer and immune diseases” (AbbVie Inc., priority 2008, dated 2015).

How the values were obtained:
FL5.12/Bcl-2 cells = assay: FL5.12/Bcl-2 cell viability assay; type: cell-based, murine; details: ratio of canine platelet EC50 to FL5.12/Bcl-2 EC50
How it was run: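 Viability measured with CellTiter-Glo after 24 h compound treatment at various concentrations, following 48 h IL-3 withdrawal (no WEHI-3B medium). Cells: prolymphocytic mouse FL5.12 line stably transfected to overexpress Bcl-2, cultured at 37 °C, 5% CO2.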

GST-Bcl-2 = assay: TR-FRET binding assay, Bcl-2; details: TR-FRET Ki values
How it was run: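 Ki values come from Wang's competitive-binding equation applied to TR-FRET signal (excitation 340/35 nm; emission 520/525 nm F-Bak peptide, 495/510 nm Tb antibody). Protein, probe and antibody incubated with compound 3 h at room temperature; dilution series began at 50 μM as 2× stock in 10% DMSO.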

## CN1CCC(Nc2ccc(S(=O)(=O)NC(=O)c3ccc(N4CCN(CC5=C(c6ccc(Cl)cc6)CC(C)(C)CC5)CC4)cc3Oc3ccc4c(c3)CCCN4)cc2[N+](=O)[O-])CC1 [Example 23, 4-(4-{[2-(4-chlorophenyl)-4,4-dimethylcyclohex-1-en-1-yl]methyl}piperazin-1-yl)-N-({4-[(1-methylpiperidin-4-yl)amino]-3-nitrophenyl}sulfonyl)-2-(1,2,3,4-tetrahydroquinolin-6-yloxy)benzamide]
FL5.12/Bcl-2 cells
  Selectivity Ratio (Platelet EC50/FL5.12/Bcl-2 EC50): >35
GST-Bcl-2
  Binding selectivity ratio (Bcl-XL Ki/Bcl-2 Ki): 25.3

## CN1CCC(CNc2ccc(S(=O)(=O)NC(=O)c3ccc(N4CCN(CC5=C(c6ccc(Cl)cc6)CC(C)(C)CC5)CC4)cc3Oc3ccc4[nH]ccc4c3)cc2[N+](=O)[O-])CC1 [Example 104, 4-(4-{[2-(4-chlorophenyl)-4,4-dimethylcyclohex-1-en-1-yl]methyl}piperazin-1-yl)-2-(1H-indol-5-yloxy)-N-[(4-{[(1-methylpiperidin-4-yl)methyl]amino}-3-nitrophenyl)sulfonyl]benzamide]
FL5.12/Bcl-2 cells
  Selectivity Ratio (Platelet EC50/FL5.12/Bcl-2 EC50): >2392
GST-Bcl-2
  Binding selectivity ratio (Bcl-XL Ki/Bcl-2 Ki): 637.7

## CN(C)CCOc1cccc(-c2ccc(Cl)cc2)c1CN1CCN(c2ccc(C(=O)NS(=O)(=O)c3ccc(NCCCN4CCCC4)c([N+](=O)[O-])c3)c(Oc3ccccc3)c2)CC1 [Example 123, 4-[4-({4′-chloro-3-[2-(dimethylamino)ethoxy]-1,1′-biphenyl-2-yl}methyl)piperazin-1-yl]-N-({3-nitro-4-[(3-pyrrolidin-1-ylpropyl)amino]phenyl}sulfonyl)-2-phenoxybenzamide]
FL5.12/Bcl-2 cells
  Selectivity Ratio (Platelet EC50/FL5.12/Bcl-2 EC50): 32
GST-Bcl-2
  Binding selectivity ratio (Bcl-XL Ki/Bcl-2 Ki): 91.5

## O=C(NS(=O)(=O)c1ccc(NCCCN2CCCC2)c([N+](=O)[O-])c1)c1ccc(N2CCN(CC3=C(c4ccc(Cl)cc4)CCCCCC3)CC2)cc1Oc1cccc2[nH]ccc12 [Example 142, 4-(4-{[2-(4-chlorophenyl)cyclooct-1-en-1-yl]methyl}piperazin-1-yl)-2-(1H-indol-4-yloxy)-N-({3-nitro-4-[(3-pyrrolidin-1-ylpropyl)amino]phenyl}sulfonyl)benzamide]
FL5.12/Bcl-2 cells
  Selectivity Ratio (Platelet EC50/FL5.12/Bcl-2 EC50): >185
GST-Bcl-2
  Binding selectivity ratio (Bcl-XL Ki/Bcl-2 Ki): 27.8

## CN(C)CCCNc1ccc(S(=O)(=O)NC(=O)c2ccc(N3CCN(CC4=C(c5ccc(Cl)cc5)CC(C)(C)CC4)CC3)cc2Oc2ccc3[nH]ccc3c2)cc1C(F)(F)F [Example 171, 4-(4-{[2-(4-chlorophenyl)-4,4-dimethylcyclohex-1-en-1-yl]methyl}piperazin-1-yl)-N-{[4-{[3-(dimethylamino)propyl]amino}-3-(trifluoromethyl)phenyl]sulfonyl}-2-(1H-indol-5-yloxy)benzamide]
FL5.12/Bcl-2 cells
  Selectivity Ratio (Platelet EC50/FL5.12/Bcl-2 EC50): >181
GST-Bcl-2
  Binding selectivity ratio (Bcl-XL Ki/Bcl-2 Ki): 17.7

## CC1(C)CCC(CN2CCN(c3ccc(C(=O)NS(=O)(=O)c4ccc(NCCCN5CCCC5)c([N+](=O)[O-])c4)c(Oc4cccc5[nH]ccc45)c3)CC2)=C(c2cccc(F)c2)C1 [Example 72, 4-(4-{[2-(3-fluorophenyl)-4,4-dimethylcyclohex-1-en-1-yl]methyl}piperazin-1-yl)-2-(1H-indol-4-yloxy)-N-({3-nitro-4-[(3-pyrrolidin-1-ylpropyl)amino]phenyl}sulfonyl)benzamide]
FL5.12/Bcl-2 cells
  Selectivity Ratio (Platelet EC50/FL5.12/Bcl-2 EC50): >325
GST-Bcl-2
  Binding selectivity ratio (Bcl-XL Ki/Bcl-2 Ki): 17.3

## CN(C)CCCNc1ccc(S(=O)(=O)NC(=O)c2ccc(N3CCN(Cc4ccccc4-c4ccc(Cl)cc4)CC3)cc2Oc2ccccc2)cc1[N+](=O)[O-] [Example 154, 4-{4-[(4′-chloro-1,1′-biphenyl-2-yl)methyl]piperazin-1-yl}-N-[(4-{[3-(dimethylamino)propyl]amino}-3-nitrophenyl)sulfonyl]-2-phenoxybenzamide]
FL5.12/Bcl-2 cells
  Selectivity Ratio (Platelet EC50/FL5.12/Bcl-2 EC50): 343
GST-Bcl-2
  Binding selectivity ratio (Bcl-XL Ki/Bcl-2 Ki): 40.4
